Reference: PubChem BioAssay (NCI)
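Step 1: Grow cells in 96-well plates. Step 2: Expose to compound for 48 hours at 5 concentrations. Step 3: Interpolate endpoints linearly; if unreached, use highest concentration. TGI is the concentration that stops growth completely.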

What was measured:
Experiment in all cases: NCI tumour cell line growth inhibition, 48 h
IGROV1 ovarian = tested on: IGROV1 ovarian
OVCAR-8 ovarian = tested on: OVCAR-8 ovarian
M14 melanoma = tested on: M14 melanoma
A498 renal = tested on: A498 renal
SK-MEL-28 melanoma = tested on: SK-MEL-28 melanoma
MDA-MB-231 breast = tested on: MDA-MB-231 breast
MDA-N = tested on: MDA-N
NCI-H460 lung = tested on: NCI-H460 lung
RPMI-8226 leukemia = tested on: RPMI-8226 leukemia
A549 NSCLC = tested on: A549 NSCLC
SNB-19 CNS = tested on: SNB-19 CNS
MALME-3M melanoma = tested on: MALME-3M melanoma
MOLT-4 leukemia = tested on: MOLT-4 leukemia
SF-295 CNS = tested on: SF-295 CNS
SN12C renal = tested on: SN12C renal
CAKI-1 renal = tested on: CAKI-1 renal
HOP-62 NSCLC = tested on: HOP-62 NSCLC
OVCAR-3 ovarian = tested on: OVCAR-3 ovarian
NCI/ADR-RES ovarian = tested on: NCI/ADR-RES ovarian
U251 CNS = tested on: U251 CNS
SNB-75 CNS = tested on: SNB-75 CNS
SK-MEL-5 melanoma = tested on: SK-MEL-5 melanoma
UO-31 renal = tested on: UO-31 renal
NCI-H226 lung = tested on: NCI-H226 lung
SF-539 CNS = tested on: SF-539 CNS
BT-549 breast = tested on: BT-549 breast
786-0 renal = tested on: 786-0 renal
ACHN renal = tested on: ACHN renal
MDA-MB-435 = tested on: MDA-MB-435
TK-10 renal = tested on: TK-10 renal
SW-620 colon = tested on: SW-620 colon
EKVX NSCLC = tested on: EKVX NSCLC
HT29 colon = tested on: HT29 colon
NCI-H23 lung = tested on: NCI-H23 lung
HCT-116 colon = tested on: HCT-116 colon
RXF 393 renal = tested on: RXF 393 renal
OVCAR-4 ovarian = tested on: OVCAR-4 ovarian
HOP-92 NSCLC = tested on: HOP-92 NSCLC
HCT-15 colon = tested on: HCT-15 colon
SK-OV-3 ovarian = tested on: SK-OV-3 ovarian
NCI-H522 lung = tested on: NCI-H522 lung
SF-268 CNS = tested on: SF-268 CNS
UACC-257 melanoma = tested on: UACC-257 melanoma
KM12 colon = tested on: KM12 colon
OVCAR-5 ovarian = tested on: OVCAR-5 ovarian
DU-145 prostate = tested on: DU-145 prostate
LOX IMVI melanoma = tested on: LOX IMVI melanoma
COLO 205 colon = tested on: COLO 205 colon
T-47D breast = tested on: T-47D breast
HS 578T breast = tested on: HS 578T breast
SR leukemia = tested on: SR leukemia
UACC-62 melanoma = tested on: UACC-62 melanoma
PC-3 prostate = tested on: PC-3 prostate
HL-60(TB) leukemia = tested on: HL-60(TB) leukemia
MCF7 breast = tested on: MCF7 breast
K-562 leukemia = tested on: K-562 leukemia
SK-MEL-2 melanoma = tested on: SK-MEL-2 melanoma
CCRF-CEM leukemia = tested on: CCRF-CEM leukemia

With `Cc1cnc(Cl)nc1C(C#N)c1nc2ccccc2s1` (stereo not given) the TGI (IGROV1 ovarian) was greater than 100 µM, the TGI (OVCAR-8 ovarian) was greater than 100 µM and the TGI (M14 melanoma) was greater than 100 µM. The TGI (A498 renal) was 84.2 µM, the TGI (SK-MEL-28 melanoma) was greater than 100 µM and the TGI (MDA-MB-231 breast) was greater than 100 µM. For the same compound, the TGI (MDA-N) was 68.1 µM, the TGI (NCI-H460 lung) was greater than 100 µM and the TGI (RPMI-8226 leukemia) was greater than 100 µM. The TGI (A549 NSCLC) was greater than 100 µM, the TGI (SNB-19 CNS) was greater than 100 µM and the TGI (MALME-3M melanoma) was 46 µM. The TGI (MOLT-4 leukemia) was greater than 100 µM, the TGI (SF-295 CNS) was 62.2 µM and the TGI (SN12C renal) was 63.2 µM. For the same compound, the TGI (CAKI-1 renal) was 73.4 µM, the TGI (HOP-62 NSCLC) was 54.6 µM and the TGI (OVCAR-3 ovarian) was greater than 100 µM. The TGI (NCI/ADR-RES ovarian) was 89.2 µM, the TGI (U251 CNS) was greater than 100 µM and the TGI (SNB-75 CNS) was 53.5 µM. The TGI (SK-MEL-5 melanoma) was 20.1 µM, the TGI (UO-31 renal) was greater than 100 µM and the TGI (NCI-H226 lung) was 84.5 µM. The TGI (SF-539 CNS) was 63.8 µM, the TGI (BT-549 breast) was 51.2 µM and the TGI (786-0 renal) was 38.3 µM. It also gave a TGI (ACHN renal) of 42.2 µM, a TGI (MDA-MB-435) greater than 100 µM and a TGI (TK-10 renal) of 78.4 µM. It also gave a TGI (SW-620 colon) greater than 100 µM, a TGI (EKVX NSCLC) greater than 100 µM and a TGI (HT29 colon) greater than 100 µM. The TGI (NCI-H23 lung) was 40.8 µM, the TGI (HCT-116 colon) was 38.2 µM and the TGI (RXF 393 renal) was 48.1 µM. It also gave a TGI (OVCAR-4 ovarian) greater than 100 µM, a TGI (HOP-92 NSCLC) of 35.4 µM and a TGI (HCT-15 colon) greater than 100 µM. The TGI (SK-OV-3 ovarian) was 87.2 µM, the TGI (NCI-H522 lung) was 16.4 µM and the TGI (SF-268 CNS) was 87.8 µM. For the same compound, the TGI (UACC-257 melanoma) was greater than 100 µM, the TGI (KM12 colon) was greater than 100 µM and the TGI (OVCAR-5 ovarian) was 80.4 µM. For the same compound, the TGI (DU-145 prostate) was greater than 100 µM, the TGI (LOX IMVI melanoma) was 50.7 µM and the TGI (COLO 205 colon) was 28.5 µM. For the same compound, the TGI (T-47D breast) was greater than 100 µM.
For `CCC(=O)O[C@H]1CC[C@H]2[C@@H]3CCC4=CC(=O)C=C[C@]4(O)[C@H]3CC[C@]12C`, the TGI (IGROV1 ovarian) was greater than 100 µM, the TGI (OVCAR-8 ovarian) was greater than 100 µM and the TGI (M14 melanoma) was greater than 100 µM. The TGI (A498 renal) was greater than 100 µM, the TGI (HS 578T breast) was greater than 100 µM and the TGI (SK-MEL-28 melanoma) was greater than 100 µM. For the same compound, the TGI (MDA-MB-231 breast) was 58.5 µM, the TGI (MDA-N) was greater than 100 µM and the TGI (NCI-H460 lung) was 44.5 µM. The TGI (RPMI-8226 leukemia) was greater than 100 µM, the TGI (A549 NSCLC) was greater than 100 µM and the TGI (SNB-19 CNS) was greater than 100 µM. The TGI (MALME-3M melanoma) was greater than 100 µM, the TGI (MOLT-4 leukemia) was greater than 100 µM and the TGI (SF-295 CNS) was greater than 100 µM. For the same compound, the TGI (SN12C renal) was greater than 100 µM, the TGI (SR leukemia) was 80.5 µM and the TGI (CAKI-1 renal) was 88.4 µM. For the same compound, the TGI (HOP-62 NSCLC) was greater than 100 µM, the TGI (OVCAR-3 ovarian) was 68.4 µM and the TGI (UACC-62 melanoma) was greater than 100 µM. For the same compound, the TGI (NCI/ADR-RES ovarian) was 91.9 µM, the TGI (U251 CNS) was 47.4 µM and the TGI (SK-MEL-5 melanoma) was 19.9 µM. The TGI (PC-3 prostate) was 81.4 µM, the TGI (UO-31 renal) was greater than 100 µM and the TGI (NCI-H226 lung) was greater than 100 µM. The TGI (SF-539 CNS) was greater than 100 µM, the TGI (BT-549 breast) was 57.5 µM and the TGI (786-0 renal) was greater than 100 µM. For the same compound, the TGI (ACHN renal) was greater than 100 µM, the TGI (MDA-MB-435) was 10.2 µM and the TGI (TK-10 renal) was greater than 100 µM. For the same compound, the TGI (HL-60(TB) leukemia) was 37.6 µM, the TGI (SW-620 colon) was greater than 100 µM and the TGI (EKVX NSCLC) was greater than 100 µM. For the same compound, the TGI (HT29 colon) was 58.4 µM, the TGI (NCI-H23 lung) was greater than 100 µM and the TGI (HCT-116 colon) was greater than 100 µM. It also gave a TGI (MCF7 breast) greater than 100 µM, a TGI (RXF 393 renal) of 52.4 µM and a TGI (OVCAR-4 ovarian) greater than 100 µM. For the same compound, the TGI (HOP-92 NSCLC) was 82.1 µM, the TGI (K-562 leukemia) was greater than 100 µM and the TGI (SK-MEL-2 melanoma) was 45.8 µM. It also gave a TGI (HCT-15 colon) greater than 100 µM, a TGI (SK-OV-3 ovarian) greater than 100 µM and a TGI (NCI-H522 lung) greater than 100 µM. It also gave a TGI (SF-268 CNS) greater than 100 µM, a TGI (UACC-257 melanoma) of 26.8 µM and a TGI (KM12 colon) of 85.1 µM. It also gave a TGI (OVCAR-5 ovarian) greater than 100 µM, a TGI (DU-145 prostate) of 64.5 µM and a TGI (CCRF-CEM leukemia) of 17.2 µM. For the same compound, the TGI (LOX IMVI melanoma) was 69.5 µM and the TGI (COLO 205 colon) was greater than 100 µM.
